# Test results taken from patent US20090181963A1, “3H-[1,2,3]TRIAZOLO[4,5-D]PYRIMIDINE COMPOUNDS, THEIR USE AS mTOR KINASE AND PI3 KINASE INHIBITORS, AND THEIR [sequence]” (Wyeth, priority 2008, published 2009).
# Experiments:
# [1] = biological target: PI3 Kinase γ (Homo sapiens, UniProt P48736); experiment: Fluorescence polarization assay for PI3K (PI3 Kinase γ); type: biochemical; settings: diC8-PI(4,5)P2 substrate, 25 μM ATP, one hour at 25° C.
# [2] = biological target: PI3 Kinase α (Homo sapiens, UniProt P42336); experiment: Fluorescence polarization assay for PI3K (PI3 Kinase α); type: biochemical; settings: diC8-PI(4,5)P2 substrate, 25 μM ATP, one hour at 25° C.
# Chain of PI3 Kinase α (P42336 whole entry): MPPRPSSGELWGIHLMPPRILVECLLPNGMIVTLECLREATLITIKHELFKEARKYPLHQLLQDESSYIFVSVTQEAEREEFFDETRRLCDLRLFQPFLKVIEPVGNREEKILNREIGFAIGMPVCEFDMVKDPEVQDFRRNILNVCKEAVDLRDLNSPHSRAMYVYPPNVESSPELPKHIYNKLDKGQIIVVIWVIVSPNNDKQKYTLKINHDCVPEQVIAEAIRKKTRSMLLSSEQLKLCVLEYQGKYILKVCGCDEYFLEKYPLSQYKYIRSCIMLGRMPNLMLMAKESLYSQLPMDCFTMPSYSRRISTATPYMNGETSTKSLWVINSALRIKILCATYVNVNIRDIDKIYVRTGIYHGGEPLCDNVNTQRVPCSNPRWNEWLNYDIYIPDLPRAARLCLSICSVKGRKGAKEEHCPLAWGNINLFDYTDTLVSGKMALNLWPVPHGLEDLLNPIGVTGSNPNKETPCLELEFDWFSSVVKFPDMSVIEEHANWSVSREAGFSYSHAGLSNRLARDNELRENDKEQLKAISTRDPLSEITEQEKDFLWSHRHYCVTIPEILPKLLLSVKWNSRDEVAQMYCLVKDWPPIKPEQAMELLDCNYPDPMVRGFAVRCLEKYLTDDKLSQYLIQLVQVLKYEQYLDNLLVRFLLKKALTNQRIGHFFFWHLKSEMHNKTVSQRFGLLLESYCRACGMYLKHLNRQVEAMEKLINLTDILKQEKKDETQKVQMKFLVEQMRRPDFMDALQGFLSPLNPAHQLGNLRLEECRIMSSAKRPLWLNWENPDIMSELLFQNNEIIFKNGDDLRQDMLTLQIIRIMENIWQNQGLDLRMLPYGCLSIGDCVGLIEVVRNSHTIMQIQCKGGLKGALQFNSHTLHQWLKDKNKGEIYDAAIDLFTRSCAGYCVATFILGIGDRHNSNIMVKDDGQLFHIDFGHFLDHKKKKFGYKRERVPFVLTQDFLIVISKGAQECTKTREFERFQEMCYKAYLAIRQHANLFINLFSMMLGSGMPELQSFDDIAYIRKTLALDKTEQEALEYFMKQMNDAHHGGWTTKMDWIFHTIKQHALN
# Chain of PI3 Kinase α (P27986 whole entry partner): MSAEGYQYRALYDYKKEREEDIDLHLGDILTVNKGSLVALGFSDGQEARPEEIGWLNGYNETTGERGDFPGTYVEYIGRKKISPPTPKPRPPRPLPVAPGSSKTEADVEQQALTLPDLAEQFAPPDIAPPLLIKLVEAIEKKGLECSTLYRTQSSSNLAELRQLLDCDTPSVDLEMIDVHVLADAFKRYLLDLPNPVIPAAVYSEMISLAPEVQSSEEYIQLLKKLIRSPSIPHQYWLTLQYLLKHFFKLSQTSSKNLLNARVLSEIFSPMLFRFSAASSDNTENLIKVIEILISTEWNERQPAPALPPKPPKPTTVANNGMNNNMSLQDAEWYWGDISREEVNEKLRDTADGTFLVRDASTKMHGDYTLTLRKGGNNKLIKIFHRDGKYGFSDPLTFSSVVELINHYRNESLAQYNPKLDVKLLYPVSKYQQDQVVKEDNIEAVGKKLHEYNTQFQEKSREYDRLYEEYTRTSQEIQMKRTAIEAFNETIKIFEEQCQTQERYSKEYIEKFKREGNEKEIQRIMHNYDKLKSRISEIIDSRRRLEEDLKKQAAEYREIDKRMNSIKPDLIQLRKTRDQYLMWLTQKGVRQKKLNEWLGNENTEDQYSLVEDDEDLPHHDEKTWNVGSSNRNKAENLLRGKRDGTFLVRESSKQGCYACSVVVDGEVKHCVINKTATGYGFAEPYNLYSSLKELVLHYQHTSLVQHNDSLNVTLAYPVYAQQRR
# Chain of PI3 Kinase γ (P48736 whole entry): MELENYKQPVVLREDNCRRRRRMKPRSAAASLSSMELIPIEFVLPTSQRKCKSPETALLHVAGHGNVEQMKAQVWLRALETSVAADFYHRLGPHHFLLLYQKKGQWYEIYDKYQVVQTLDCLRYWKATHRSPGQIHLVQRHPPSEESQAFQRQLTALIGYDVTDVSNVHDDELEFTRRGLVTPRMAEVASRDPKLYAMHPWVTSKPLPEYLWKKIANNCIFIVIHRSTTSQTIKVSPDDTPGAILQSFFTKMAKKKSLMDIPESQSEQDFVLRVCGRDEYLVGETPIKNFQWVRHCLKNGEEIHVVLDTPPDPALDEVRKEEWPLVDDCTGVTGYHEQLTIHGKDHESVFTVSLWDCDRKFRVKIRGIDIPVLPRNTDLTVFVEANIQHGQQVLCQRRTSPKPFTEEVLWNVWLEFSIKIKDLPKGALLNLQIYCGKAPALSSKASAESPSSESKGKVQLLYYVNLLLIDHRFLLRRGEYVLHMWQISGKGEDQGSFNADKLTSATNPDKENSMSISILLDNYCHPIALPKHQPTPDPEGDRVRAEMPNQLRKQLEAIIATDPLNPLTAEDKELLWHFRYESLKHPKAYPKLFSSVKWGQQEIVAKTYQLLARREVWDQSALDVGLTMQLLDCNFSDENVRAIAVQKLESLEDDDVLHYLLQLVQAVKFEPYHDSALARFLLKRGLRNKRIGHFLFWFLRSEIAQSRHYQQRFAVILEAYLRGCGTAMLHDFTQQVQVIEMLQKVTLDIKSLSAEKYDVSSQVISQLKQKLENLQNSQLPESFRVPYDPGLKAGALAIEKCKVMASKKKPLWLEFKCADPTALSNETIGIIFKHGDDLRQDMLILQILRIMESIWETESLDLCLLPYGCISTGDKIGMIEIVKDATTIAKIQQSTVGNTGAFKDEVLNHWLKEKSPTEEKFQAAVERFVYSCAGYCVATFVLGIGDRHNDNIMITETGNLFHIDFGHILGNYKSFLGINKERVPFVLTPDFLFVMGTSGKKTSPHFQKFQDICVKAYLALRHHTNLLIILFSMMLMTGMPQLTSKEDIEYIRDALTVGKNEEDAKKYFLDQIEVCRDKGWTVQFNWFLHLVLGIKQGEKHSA
SMILES,IC50 [1] [nM],IC50 [2] [nM]
"Cc1ccc(CN2CCC(n3nnc4c(N5CCOCC5)nc(-c5cncc(O)c5)nc43)CC2)s1 [Example 21, 5-(3-{1-[(5-methyl-2-thienyl)methyl]piperidin-4-yl}-7-morpholin-4-yl-3H-[1,2,3]triazolo[4,5-d]pyrimidin-5-yl)pyridin-3-ol]",240,66
"CN(C)CCCOc1ccc(CN2CCC(n3nnc4c(N5CCOCC5)nc(-c5cccc(O)c5)nc43)CC2)cc1 [Example 146, 3-[3-(1-{4-[3-(dimethylamino)propoxy]benzyl}piperidin-4-yl)-7-morpholin-4-yl-3H-[1,2,3]triazolo[4,5-d]pyrimidin-5-yl]phenol]",280,13
"OCc1cncc(-c2nc(N3CCOCC3)c3nnn(C4CCN(Cc5ccccc5)CC4)c3n2)c1 [Example 173, {5-[3-(1-benzylpiperidin-4-yl)-7-morpholin-4-yl-3H-[1,2,3]triazolo[4,5-d]pyrimidin-5-yl]pyridin-3-yl}methanol]",1850,570
"CC(C)n1nnc2c(N3CCOCC3)nc(-c3ccc(NC(=O)NCCN(C)C)cc3)nc21 [Example 88, 1-[2-(dimethylamino)ethyl]-3-[4-(3-isopropyl-7-morpholin-4-yl-3H-[1,2,3]triazolo[4,5-d]pyrimidin-5-yl)phenyl]urea]",197,77.5
"Oc1cccc(-c2nc(N3CCOCC3)c3nnn(C4CCNCC4)c3n2)c1 [Example 144, 3-(7-morpholin-4-yl-3-piperidin-4-yl-3H-[1,2,3]triazolo[4,5-d]pyrimidin-5-yl)phenol]",406,81.5
"CN(C)CCCOc1ccc(CN2CCC(n3nnc4c(N5CCOCC5)nc(-c5ccc(NC(=O)NCCN(C)C)cc5)nc43)CC2)cc1 [Example 162, 1-(2-(dimethylamino)ethyl)-3-(4-(3-(1-(4-(3-(dimethylamino)propoxy)benzyl)piperidin-4-yl)-7-morpholino-3H-[1,2,3]triazolo[4,5-d]pyrimidin-5-yl)phenyl)urea]",104,11.5
"CC(C)(C)OC(=O)N1CC(n2nnc3c(N4CCOCC4)nc(-c4cccc(O)c4)nc32)C1 [Example 124, tert-butyl 3-[5-(3-hydroxyphenyl)-7-morpholin-4-yl-3H-[1,2,3]triazolo[4,5-d]pyrimidin-3-yl]azetidine-1-carboxylate]",890,108
"O=C(NCCc1cnc[nH]1)c1ccc(Cn2nnc3c(N4CCOCC4)nc(-c4cccc(O)c4)nc32)cc1 [Example 231, 4-{[5-(3-hydroxyphenyl)-7-morpholin-4-yl-3H-[1,2,3]triazolo[4,5-d]pyrimidin-3-yl]methyl}-N-[2-(1H-imidazol-5-yl)ethyl]benzamide]",2300,60
"COC(=O)c1ccc(Cn2nnc3c(N4CCOCC4)nc(-c4cc(O)cc(F)c4)nc32)cc1 [Example 244, methyl 4-{[5-(3-fluoro-5-hydroxyphenyl)-7-morpholin-4-yl-3H-[1,2,3]triazolo[4,5-d]pyrimidin-3-yl]methyl}benzoate]",1610,1510
"O=C(Nc1ccc(-c2nc(N3CCOCC3)c3nnn(C4CC4)c3n2)cc1)Nc1cccs1 [Example 80, 1-(4-(3-cyclopropyl-7-morpholino-3H-[1,2,3]triazolo[4,5-d]pyrimidin-5-yl)phenyl)-3-(thiophen-2-yl)urea]",19.5,3
"NC(=O)Cn1nnc2c(N3CCOCC3)nc(-c3cccc(CO)c3)nc21 [Example 237, 2-{5-[3-(hydroxymethyl)phenyl]-7-morpholin-4-yl-3H-[1,2,3]triazolo[4,5-d]pyrimidin-3-yl}acetamide]",2590,460
"CN(C)CCNC(=O)Nc1ccc(-c2nc(N3CCOCC3)c3nnn(C4CCN(Cc5ccc(Br)nc5)CC4)c3n2)cc1 [Example 155, 1-(4-(3-(1-((6-bromopyridin-3-yl)methyl)piperidin-4-yl)-7-morpholino-3H-[1,2,3]triazolo[4,5-d]pyrimidin-5-yl)phenyl)-3-(2-(dimethylamino)ethyl)urea]",176,48
"Oc1cncc(-c2nc(N3CCOCC3)c3nnn(C4CCN(Cc5ccc(F)cc5)CC4)c3n2)c1 [Example 14, 5-{3-[1-(4-fluorobenzyl)piperidin-4-yl]-7-morpholin-4-yl-3H-[1,2,3]triazolo[4,5-d]pyrimidin-5-yl}pyridin-3-ol]",94,60
"OCc1cncc(-c2nc(N3CCOCC3)c3nnn(C4CCNCC4)c3n2)c1 [Example 174, [5-(7-morpholin-4-yl-3-piperidin-4-yl-3H-[1,2,3]triazolo[4,5-d]pyrimidin-5-yl)pyridin-3-yl]methanol]",956,285

# Other lines, results leading:
IC50 [1] [nM],IC50 [2] [nM],SMILES
1800,5630,"CCn1nnc2c(N3CCOCC3)nc(-c3ccc(NC(=O)NC4CCN(C(=O)OCc5ccccc5)CC4)cc3)nc21 [Example 65, benzyl 4-({[4-(3-ethyl-7-morpholin-4-yl-3H-[1,2,3]triazolo[4,5-d]pyrimidin-5-yl)phenyl]carbamoyl}amino)piperidine-1-carboxylate]"
88.5,8,"CCn1nnc2c(N3CCOC[C@@H]3C)nc(-c3ccc(NC(=O)Nc4cccnc4)cc3)nc21 [Example 72, (S)-1-(4-(3-ethyl-7-(3-methylmorpholino)-3H-[1,2,3]triazolo[4,5-d]pyrimidin-5-yl)phenyl)-3-(pyridin-3-yl)urea]"
34,7,"O=C(Nc1ccc(-c2nc(N3CCOCC3)c3nnn(C4CC4)c3n2)cc1)Nc1cccnc1 [Example 79, 1-(4-(3-cyclopropyl-7-morpholino-3H-[1,2,3]triazolo[4,5-d]pyrimidin-5-yl)phenyl)-3-(pyridin-3-yl)urea]"
30,4.5,"CCn1nnc2c(N3CCOCC3)nc(-c3ccc(NC(=O)Nc4ccc(C(=O)NCCc5ccccn5)cc4)cc3)nc21 [Example 63, 4-({[4-(3-ethyl-7-morpholin-4-yl-3H-[1,2,3]triazolo[4,5-d]pyrimidin-5-yl)phenyl]carbamoyl}amino)-N-(2-pyridin-2-ylethyl)benzamide]"
156,30,"CC(C)(C)OC(=O)N1CC(n2nnc3c(N4CCOCC4)nc(-c4ccc(NC(=O)Nc5ccncc5)cc4)nc32)C1 [Example 129, tert-butyl 3-(7-morpholin-4-yl-5-{4-[(pyridin-4-ylcarbamoyl)amino]phenyl}-3H-[1,2,3]triazolo[4,5-d]pyrimidin-3-yl)azetidine-1-carboxylate]"
8.5,4,"O=C(Nc1ccccc1)Nc1ccc(-c2nc(N3CCOCC3)c3nnn(-c4cccc(C(=O)O)c4)c3n2)cc1 [Example 123, 3-(7-morpholin-4-yl-5-{4-[(phenylcarbamoyl)amino]phenyl}-3H-[1,2,3]triazolo[4,5-d]pyrimidin-3-yl)benzoic acid]"
31,3.6,"CCn1nnc2c(N3CCOCC3)nc(-c3ccc(NC(=O)Nc4ccc(C(=O)NCc5ccncc5)cc4)cc3)nc21 [Example 51, 4-({[4-(3-ethyl-7-morpholin-4-yl-3H-[1,2,3]triazolo[4,5-d]pyrimidin-5-yl)phenyl]carbamoyl}amino)-N-(pyridin-4-ylmethyl)benzamide]"
69.5,13.5,"CC(C)n1nnc2c(N3CCOCC3)nc(-c3ccc(NC(=O)Nc4ccc(F)cc4)cc3)nc21 [Example 87, 1-(4-fluoro-phenyl)-3-[4-(3-isopropyl-7-morpholin-4-yl-3H-[1,2,3]triazolo[4,5-d]pyrimidin-5-yl)-phenyl]-urea]"
346,19,"O=C(Nc1ccccc1)Nc1ccc(-c2nc(N3CCOCC3)c3nnn(CC4CN(C(=O)c5ccccc5)C4)c3n2)cc1 [Example 190, 1-(4-{3-[(1-benzoylazetidin-3-yl)methyl]-7-morpholin-4-yl-3H-[1,2,3]triazolo[4,5-d]pyrimidin-5-yl}phenyl)-3-phenylurea]"
11.5,< 1.9,"CCn1nnc2c(N3CCOCC3)nc(-c3ccc(NC(=O)Nc4ccc(C(=O)N(C)CCNC)cc4)cc3)nc21 [Example 52, 4-({[4-(3-ethyl-7-morpholin-4-yl-3H-[1,2,3]triazolo[4,5-d]pyrimidin-5-yl)phenyl]carbamoyl}amino)-N-methyl-N-[2-(methylamino)ethyl]benzamide]"
92.5,15.5,"CCn1nnc2c(N3CCOC[C@@H]3C)nc(-c3ccc(NC(=O)Nc4ccc(OC)cc4)cc3)nc21 [Example 73, (S)-1-(4-(3-ethyl-7-(3-methylmorpholino)-3H-[1,2,3]triazolo[4,5-d]pyrimidin-5-yl)phenyl)-3-(4-methoxyphenyl)urea]"
186,58.5,"COC(Cn1nnc2c(N3CCOCC3)nc(-c3ccc(NC(=O)Nc4cccnc4)cc3)nc21)OC [Example 181, 1-{4-[3-(2,2-dimethoxyethyl)-7-morpholin-4-yl-3H-[1,2,3]triazolo[4,5-d]pyrimidin-5-yl]phenyl}-3-pyridin-3-ylurea]"
1840,260,"CCNC(=O)c1ccc(Cn2nnc3c(N4CCOCC4)nc(-c4cccc(O)c4)nc32)cc1 [Example 219, N-ethyl-4-{[5-(3-hydroxyphenyl)-7-morpholin-4-yl-3H-[1,2,3]triazolo[4,5-d]pyrimidin-3-yl]methyl}benzamide]"
11,1.7,"CCn1nnc2c(N3CCOCC3)nc(-c3ccc(NC(=O)Nc4ccc(C(=O)NCCN5CCCCC5)cc4)cc3)nc21 [Example 56, 4-({[4-(3-ethyl-7-morpholin-4-yl-3H-[1,2,3]triazolo[4,5-d]pyrimidin-5-yl)phenyl]carbamoyl}amino)-N-(2-piperidin-1-ylethyl)benzamide]"
100,34.5,"Cc1ccc(NC(=O)Nc2ccc(-c3nc(N4CCOCC4)c4nnn(C(C)C)c4n3)cc2)cc1 [Example 90, 1-(4-methyl-phenyl)-3-[4-(3-isopropyl-7-morpholin-4-yl-3H-[1,2,3]triazolo[4,5-d]pyrimidin-5-yl)-phenyl]-urea]"
